Patent US20130023504A1, “Modulation of Prostaglandin/Cyclooxygenase Metabolic Pathways” (HUNTER-FLEMING LIMITED, priority 2006, published 2013)
“And” between values parts separate entries of the source, which are not always exact repeats. Equal entries are not always repeated.

How the values were obtained:
rat sensory neurones = test: Neurite growth of sensory neurones in primary culture (anti β-Tubulin, In Cell Analyzer); format: cell-based
Method: Rat sensory neurones were prepared according to the method described by Hall et al. 1997 (Hall A K, Ai X, Hickman G E, MacPhedran S E, Nduaguba C O, Robertson C P. The generation of neuronal heterogeneity in a rat sensory ganglion. J. Neurosci. 1997 Apr. 15; 17(8):2775-84). Briefly, female rats (15 days gestation) were killed by cervical dislocation (Rats Wistar; Janvier, Le Genest-St-Isle, France) and the foetuses removed from the uterus. Their spinal cords with the dorsal root ganglia (DRG) were removed and placed in ice-cold medium of Leibovitz (L15, Fisher 11415-049) containing Penicillin 50 Ul/ml-Streptomycin 50 pg/ml (PS, 1%) and bovine serum albuminutes (BSA 1%, Sigma A6003). The DRG were recovered and dissociated by trypsinisation for 20 minutes at 37° C. (trypsin EDTA 10×, 10%, Fisher 15400054) diluted in PBS without calcium and magnesium (Fisher 2007-03). The reaction was stopped by addition of Dulbecco modified Eagle medium (DMEM, Fisher 21969-035) containing DNase I grade II (0.1 mg/ml Roche diagnostic 104159) and foetal bovine serum (FBS 10%, Fisher 10270-098). The cell suspension was triturated with a 10 ml pipette and centrifuged at 350×g for 10 minutes at room temperature. The pellet of dissociated cells was then resuspended in defined culture medium.
Viable cells were counted in a Neubauer cytometer using the trypan blue exclusion test (Sigma) and seeded at a density of 25 000 cells/well in 96 well-plates (Nunc). Wells were pre-coated with poly-L-lysine (10 μg/ml, Sigma P2636) in ultra pure sterile water (Merck Eurolab 60759.01).
Cells were allowed to adhere for 2 hours and maintained in a humidified incubator at 37° C. in 5% CO2/95% air atmosphere.
The culture medium was changed into a defined culture medium after a 12 hours incubation period following the conditions described below:
NGF 50 ng/ml and 10 ng/ml (in 0.1% DMSO)
After 6 hours, 12 hours and 24 hours of incubation with 7β-OH EPIA, cells were fixed for 5 minutes in an ethanol/acetic acid solution (95%/5%) at −20° C. and rinsed 3 times in PBS.
Motor neurones and sensory neurones were labelled by monoclonal anti β-Tubulin antibody (Sigma T8660) diluted at 1:400 in incubation solution (PBS with 5% of FCS and 0.1% of saponin, Sigma S-7900). This antibody specifically labels neurone cell bodies and neurites.
After 2 hours of incubation, the cells were washed in PBS and incubated with Alexa Fluor 488 goat anti mouse IgG (Molecular Probes A11001) diluted at 1:300 in incubation solution to reveal the 8-Tubulin III antibodies.
Analysis of the total length of neurones labelled with anti β-Tubulin antibodies (neurones) were carried out using In Cell Analyzer 1000 3.2.Workstation software.
The results were expressed in percentage compared to the vehicle. Comparison of groups was carried out using the unpaired T test.

PC-12 cells = test: Ischaemia (oxygen-glucose deprivation)-induced cell death in NGF-differentiated PC-12 cells, Trypan Blue exclusion; format: cell-based; conditions: vs. ischemia alone
Method: PC-12 cells were maintained on flasks coated with Collagen typel in PC-12 media with the following composition; RPMI 1640 without L-glutamine with 2 mM L-glutamine, 10 mM HEPES, 1 mM Sodium Pyruvate, additional glucose to give a final concentration of 4.5 g/L (RPMI normally has 2 g/L), 10% heat inactivated horse serum, 5% foetal calf serum and 50 units of penicillin/streptomycin. Media was changed every 2 days.
Confluent cultures of PC-12 cells were differentiated by culturing for 7 days in PC-12 medium without serum but with 50 ng/mlNGF (PC-12 NGF media). The cells were harvested, washed, counted and 1×10^5 PC-12 cells/well were plated overnight in a micro titre plate in glucose free PC-12 NGF medium. The medium was then changed to glucose-free PC-12 NGF medium containing the compounds to be tested and the plates left under normoxic conditions for 30 minutes.
During this stage, the media and test substances for the anoxic exposure were placed in a chamber and de-oxygenated with 95% N2/5% CO2. The media in the plates was changed with the de-oxygenated media and the plates then placed in an anaerobic chamber gassed with 95% N2 5% CO2 for 10 minutes before being sealed and incubated at 37° C. overnight (18 hours). For normoxia controls, the cells were treated identically to ischemic treatments except that all incubations were in 5% CO2/95% air.
Viability was determined using Trypan Blue exclusion.

CC12CCC3C(C1CCC2=O)[C@@H](O)C[C@H]1C[C@@H](O)CCC31C (stereo partly drawn) [Compound 7β-OH-EPIA, 7β-hydroxy-EPIAndrosterone]
Neurites length per field, % Vehicle (rat sensory neurones; 10^−4 M, 6 hours): 101%
Neurites length per field, Mean (rat sensory neurones; 10^−4 M, 6 hours): 103.2 μm
Neurites length per field, % Vehicle (rat sensory neurones; 10^−4 M, 12 hours): 97%
Neurites length per field, Mean (rat sensory neurones; 10^−4 M, 12 hours): 290.3 μm
Neurites length per field, % Vehicle (rat sensory neurones; 10^−4 M, 24 hours): 104%
Neurites length per field, Mean (rat sensory neurones; 10^−4 M, 24 hours): 228.6 μm
Neurites length per field, % Vehicle (rat sensory neurones; 10^−5 M, 6 hours): 112%
Neurites length per field, Mean (rat sensory neurones; 10^−5 M, 6 hours): 114.8 μm
Neurites length per field, % Vehicle (rat sensory neurones; 10^−5 M, 12 hours): 108%
Neurites length per field, Mean (rat sensory neurones; 10^−5 M, 12 hours): 321.0 μm
Neurites length per field, % Vehicle (rat sensory neurones; 10^−5 M, 24 hours): 111%
Neurites length per field, Mean (rat sensory neurones; 10^−5 M, 24 hours): 244.8 μm
Neurites length per field, % Vehicle (rat sensory neurones; 10^−6 M, 6 hours): 96%
Neurites length per field, Mean (rat sensory neurones; 10^−6 M, 6 hours): 97.7 μm
Neurites length per field, % Vehicle (rat sensory neurones; 10^−6 M, 12 hours): 96%
Neurites length per field, Mean (rat sensory neurones; 10^−6 M, 12 hours): 287.0 μm
Neurites length per field, % Vehicle (rat sensory neurones; 10^−6 M, 24 hours): 86%
Neurites length per field, Mean (rat sensory neurones; 10^−6 M, 24 hours): 189.9 μm
Neurites length per field, % Vehicle (rat sensory neurones; 10^−7 M, 6 hours): 149%
Neurites length per field, Mean (rat sensory neurones; 10^−7 M, 6 hours): 151.8 μm
Neurites length per field, % Vehicle (rat sensory neurones; 10^−7 M, 6 hours, listed as 7β-OH EPIA): 171%
Neurites length per field, % Vehicle (rat sensory neurones; 10^−7 M, 12 hours): 134%
Neurites length per field, Mean (rat sensory neurones; 10^−7 M, 12 hours): 398.4 μm
Neurites length per field, % Vehicle (rat sensory neurones; 10^−7 M, 24 hours): 173%
Neurites length per field, Mean (rat sensory neurones; 10^−7 M, 24 hours): 380.8 μm
Neurites length per field, % Vehicle (rat sensory neurones; 10^−8 M, 6 hours): 176%
Neurites length per field, Mean (rat sensory neurones; 10^−8 M, 6 hours): 179.3 μm
Neurites length per field, % Vehicle (rat sensory neurones; 10^−8 M, 12 hours): 123%
Neurites length per field, Mean (rat sensory neurones; 10^−8 M, 12 hours): 368.3 μm
Neurites length per field, % Vehicle (rat sensory neurones; 10^−8 M, 24 hours): 174%
Neurites length per field, Mean (rat sensory neurones; 10^−8 M, 24 hours): 384.3 μm
Neurites length per field, % Vehicle (rat sensory neurones; 10^−9 M, 6 hours): 171%
Neurites length per field, Mean (rat sensory neurones; 10^−9 M, 6 hours): 174.2 μm
Neurites length per field, % Vehicle (rat sensory neurones; 10^−9 M, 6 hours, listed as 7β-OH EPIA): 149%
Neurites length per field, % Vehicle (rat sensory neurones; 10^−9 M, 12 hours): 145%
Neurites length per field, Mean (rat sensory neurones; 10^−9 M, 12 hours): 431.8 μm
Neurites length per field, % Vehicle (rat sensory neurones; 10^−9 M, 24 hours): 147%
Neurites length per field, Mean (rat sensory neurones; 10^−9 M, 24 hours): 324.9 μm
decrease in cell death (PC-12 cells; 1 μM): 26% and 25%
decrease in cell death (PC-12 cells; 10 μM): 53% and 50%
